This is an account of results in ChEMBL document CHEMBL1139085, “Synthesis and biological evaluation of fenobam analogs as mGlu5 receptor antagonists” (Bioorg Med Chem Lett, 2007).

In series [1] the target is T1, Metabotropic glutamate receptor 5 (Homo sapiens, UniProt P41594). As to the kind of experiment: Antagonist activity at mGluR5 by FLIPR. It is filed as functional.
Series [2] addresses T1, Metabotropic glutamate receptor 5. As to the kind of experiment: Displacement of [3H]MPEP from mGlu5 receptor. In general terms: Displacement assays read how much labelled ligand stays bound in the presence of the test substance.
Series [3] is described as follows: Metabolic stability in human liver microsomes. It is filed as ADME, Microsome.
Series [4] can be described thus: Metabolic stability in rat liver microsomes. It is filed as ADME, Microsome. On the technique in general: Liver microsomes are a subcellular fraction often used to study metabolism.
Series [5] is filed under the species Rattus norvegicus. Kind of series: Anxiolytic-like activity in rat assessed as reversal of foot shock-induced suppression of lever pressing by conflict test. It is filed as functional, organism-based.
For series [6], the species on record is Rattus norvegicus. Kind of series: Anxiolytic-like activity in rat assessed as reversal of foot shock-induced suppression of lever pressing by conditioned emotional response test. It is filed as functional, organism-based.
In series [7] the test system is Rattus norvegicus. Kind of series: Anxiolytic-like activity in rat assessed as behavioral disruption at 3 to 30 mg/kg, po by conditioned emotional response test. It is filed as functional, organism-based.
Series [8] concerns Rattus norvegicus. As to the kind of experiment: Anxiolytic-like activity in rat assessed as behavioral disruption at 3 to 30 mg/kg, po by conflict test. It is filed as functional, organism-based.
For series [9], the system named is Rattus norvegicus. As to the kind of experiment: Anxiolytic-like activity in rat assessed as increase in drinking time at 30 mg/kg, po by Vogel conflict test. It is filed as functional, organism-based. The arrangement: dose 30 mg/kg.

The source made the active and inactive calls. The rule behind the calls is not given here. Bounds are passed on as bounds.

T1 sequence (P41594 whole entry): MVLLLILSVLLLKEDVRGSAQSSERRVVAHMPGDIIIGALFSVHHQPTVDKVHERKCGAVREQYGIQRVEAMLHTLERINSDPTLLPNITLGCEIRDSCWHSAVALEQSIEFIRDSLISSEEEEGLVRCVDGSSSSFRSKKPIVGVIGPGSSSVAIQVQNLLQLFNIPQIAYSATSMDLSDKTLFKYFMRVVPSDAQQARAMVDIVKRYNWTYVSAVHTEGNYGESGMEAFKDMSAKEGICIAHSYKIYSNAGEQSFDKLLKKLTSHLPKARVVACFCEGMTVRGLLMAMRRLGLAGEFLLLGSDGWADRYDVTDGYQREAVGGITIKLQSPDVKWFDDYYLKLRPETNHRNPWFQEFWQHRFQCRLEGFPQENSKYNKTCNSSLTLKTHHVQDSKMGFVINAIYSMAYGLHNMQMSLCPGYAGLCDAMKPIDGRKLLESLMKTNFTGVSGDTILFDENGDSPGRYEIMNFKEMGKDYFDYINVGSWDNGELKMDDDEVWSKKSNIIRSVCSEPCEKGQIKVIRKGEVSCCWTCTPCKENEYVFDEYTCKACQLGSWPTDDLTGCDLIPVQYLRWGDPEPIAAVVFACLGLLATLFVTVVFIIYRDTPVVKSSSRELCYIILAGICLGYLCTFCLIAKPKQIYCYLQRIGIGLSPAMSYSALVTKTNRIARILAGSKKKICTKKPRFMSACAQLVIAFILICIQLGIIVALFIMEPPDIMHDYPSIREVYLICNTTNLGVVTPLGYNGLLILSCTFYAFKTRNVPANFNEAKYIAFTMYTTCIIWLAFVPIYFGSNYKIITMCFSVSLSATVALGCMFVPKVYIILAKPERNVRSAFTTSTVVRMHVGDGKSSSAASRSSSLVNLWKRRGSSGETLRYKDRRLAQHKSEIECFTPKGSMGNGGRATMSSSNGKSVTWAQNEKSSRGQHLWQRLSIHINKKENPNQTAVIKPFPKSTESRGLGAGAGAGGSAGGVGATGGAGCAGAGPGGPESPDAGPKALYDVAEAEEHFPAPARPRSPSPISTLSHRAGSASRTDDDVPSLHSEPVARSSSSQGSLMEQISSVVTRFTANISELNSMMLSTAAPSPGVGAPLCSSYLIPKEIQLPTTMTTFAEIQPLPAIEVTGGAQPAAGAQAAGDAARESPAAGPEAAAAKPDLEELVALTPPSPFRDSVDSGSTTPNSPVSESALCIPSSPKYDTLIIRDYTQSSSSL

As for `Cc1cccc(C#Cc2cccnc2)n1`, the IC50 in series [1] was determined as 66 nM; in series [2], 10 nM.
In the case of `CN1CC(=O)N=C1NC(=O)Nc1cccc(Cl)c1` [FENOBAM ANHYDROUS], the concentration for half-maximal inhibition (IC50) in series [1] turned out to be 38 nM; in series [2], 61 nM. The results for the microsomal CLint in series [3] and in [4] were 100 µL/min/mg and 44 µL/min/mg, respectively.
Turning to `CN1CC(=O)N/C1=N\C(=O)Nc1ccsc1`, the IC50 in series [1] stood at 4020 nM; in [2] it was 700 nM.
In the same order, the values of `Cc1cccc(C#Cc2cccc(Cl)c2)n1` are 7 nM and 3 nM.
For the compound `CN1CC(=O)N/C1=N\C(=O)Nc1ccccc1`, the IC50 in series [1] was 3300 nM; in series [2] it was 1360 nM.
As for `CN1CC(=O)N/C1=N\C(=O)Nc1cccnc1`, the half-inhibitory concentration (IC50) in [1] and in [2] was above 5000 nM in each case. Also, the intrinsic clearance (microsomal CLint) was 20 µL/min/mg in series [3] and 5 µL/min/mg in series [4].
`CN1CC(=O)N/C1=N\C(=O)Nc1csc(Cl)c1`: the Activity result in the series listed under Rattus norvegicus [5] and in the series listed under Rattus norvegicus [6] was “Dose-dependent effect” throughout. Also, the result with Rattus norvegicus [7] and in the series with Rattus norvegicus [8] was inactive. The results for the IC50 in series [1] and in series [2] were 434 nM and 78 nM, respectively. The microsomal CLint is 55 µL/min/mg in series [3] and 27 µL/min/mg in series [4]. In addition, in the series on Rattus norvegicus [9], the result was Active.
Take `Cc1cccc(C#Cc2ccc(Cl)cc2)n1`: the half-inhibitory concentration (IC50) in series [1] worked out at 1020 nM; in [2] it was 286 nM.
As for `CN1CC(=O)N/C1=N\C(=O)Nc1ccccn1`, the IC50 in series [1] was 1100 nM; in [2] it was 587 nM. For the same compound, the figures for the microsomal CLint in [3] and in series [4] were 47 µL/min/mg and 22 µL/min/mg, respectively.
The matching figures for `CN1CC(=O)N/C1=N\C(=O)Nc1ccncc1`: above 5000 nM, 1120 nM, 11 µL/min/mg and 9 µL/min/mg.
On to `CN1CC(=O)N/C1=N\C(=O)Nc1ccc(Cl)cc1`, for which the IC50 in series [1] and in series [2] was above 5000 nM in each case.
Regarding `Cc1cccc(C#Cc2ccccc2Cl)n1`, the figures for the 50% inhibitory concentration (IC50) in [1] and in [2] were 15 nM and 5 nM, respectively.
In the same order, the values of `CN1CC(=O)N/C1=N\C(=O)Nc1ccccc1Cl` are 6800 nM and 2520 nM.
In the same order, the values of `Cc1cccc(C#Cc2ccncc2)n1` are 213 nM and 26 nM.
The matching figures for `Cc1cccc(C#Cc2ccccn2)n1`: 400 nM and 39 nM.

The IC50 is the concentration at which inhibition is half-maximal. The term microsomal CLint denotes the capacity of the preparation to metabolise the compound, expressed as a volume cleared per time. A high value points to rapid turnover.
